Entries after “also recorded” stand apart in the source; their conditions may differ.
Experiments:
ADSCs [1] = assay: PrestoBlue assay of ADSCs; type: cell-based; details: day 7, 14, 21, 0.5, 1.0, 1.5 μM
Method: (§1) Rosiglitazone (AVANDIA®) was added to the adipogenic medium at a final concentration of 1 μM before use. A PrestoBlue™ assay and a LIVE/DEAD viability/cytotoxicity kit were utilized to assess cell viability. Live and dead cell counts were obtained using a Celigo Image Cytometer. Cells were fixed in 4% PFA (paraformaldehyde) and stained with Oil Red O to measure lipid formation as a sign of adipocyte differentiation. Lipid formation was quantified by assessing the absorbance of Oil Red O at 515 nm.

hMSCs [2] = assay: PrestoBlue assay of hMSCs; type: cell-based, human; details: day 7, 14, 18, 0.5, 1.0, 1.5 μM
Method: as §1

PPARγ = details: 3T3-L1 preadipocytes; cited from earlier work
[3] = tested on: adipose-derived stem cells (ADSCs); assay: Oil Red O quantification of lipid formation in adipogenic ADSC cultures; type: cell-based
Method: as §1

[4] = tested on: human skeletal muscle cells (hSkMCs); assay: Morphological assessment of lipid droplets in hSkMCs cultured with scaffolds; type: cell-based; details: drug in both GelMA and PLGA layers
Method: Human skeletal muscle cells ([…]) (5,000 cells/cm^2) were cultured in ADM and myogenic differentiation media (myodiff) with scaffolds at 200 rpm, with and without the drug in GelMA and PLGA layers to evaluate the relationship between drug concentrations and lipid formation resulting from the drug's release from the scaffold. PrestoBlueTM assay assessed cell viability.

3T3-L1 preadipocytes = details: cited from earlier work
[5] = tested on: bone marrow-derived human mesenchymal stem cells (hMSCs); assay: Oil Red O quantification of lipid formation in adipogenic hMSC cultures; type: cell-based
Method: as §1

ADSCs [6] = assay: Live/Dead quantification of ADSCs; type: cell-based
Method: as §1

hMSCs [7] = assay: Live/Dead quantification of hMSCs; type: cell-based, human; details: day 7, 14, 18, 0.5, 1.0, 1.5 μM
Method: as §1

[8] = CHIR99021 release from polymeric scaffolds (HPLC); type: physicochemical
Method: In this study, GSK3β inhibitor-loaded scaffolds were fabricated via electrospinning and hydrogel formation. Pluronic F127 (0.08 g) was dissolved in 1.0 ml hexafluoroisopropanol (HFP) before adding the GSK3β inhibitor. Separately, poly(lactic-co-glycolic acid) PLGA (50:50) (16%, w/v) was dissolved in HFP. The polymer solutions (PLGA/CHIR-F127 or PLGA/CHIR) were electrospun at a flow rate of 1.0 ml/h with a 14 cm distance from the 18G needle tip to the cylindrical drum, and voltages +11/−2 kV were applied. Samples (13.5 mm diameter) punched out from scaffolds were immersed in GelMA (gelatin methacrylate) (5%, w/v)/CHIR solution for 20 seconds, then crosslinked using Lithium Phenyl (2,4,6-Trimethylbenzoyl) Phosphinate (LAP, 0.5% w/v) for 2 minutes on each side under 405 nm UV. Scaffolds comprise a rapidly degrading layer of GelMA for inhibitor delivery to the injury site, and a slow-degrading layer of PLGA to provide prolonged support for tissue regeneration.
Samples were submerged in water on a plate shaker at 400 rpm, with 200 μL replaced by fresh water at each time point.

Structure (SMILES): Cc1cnc(-c2cnc(NCCNc3ccc(C#N)cn3)nc2-c2ccc(Cl)cc2Cl)[nH]1 [CHIR99021]
- cellular metabolic activity (PrestoBlue) (ADSCs [1]): does not negatively alter
- cellular metabolic activity (PrestoBlue) (hMSCs [2]): does not negatively alter
- PPARγ expression (PPARγ): induced
- difference in lipid formation in groups treated with CHIR99021 ([3]; ADSCs at 21 days, One-Way ANOVA, P=0.00003): significant difference
- lipid droplet formation (Oil Red O) ([3]; ADSCs in ADM, CHIR99021 0.5, 1.0, 1.5 μM): decreases; also recorded: inhibited lipid formation
- lipid droplet suppression, CHIR99021 in both GelMA and PLGA layers [4]: enhances this effect
- differentiation of 3T3-L1 preadipocytes (Oil Red O staining) (3T3-L1 preadipocytes): blocked the differentiation
- difference in lipid formation in groups treated with CHIR99021 ([5]; hMSCs at 18 day, One-Way ANOVA, P=0.0000018): significant difference
- lipid droplet formation (Oil Red O) ([5]; hMSCs in ADM, CHIR99021 0.5, 1.0, 1.5 μM): decreases
- viability (Live/Dead) (ADSCs [6]; day 7, 14, 21, 0.5, 1.0, 1.5 μM): does not negatively alter
- percent of dead cells, ADSCs in GM versus in 1.5 μM CHIR (ADSCs [6]; day 21, 1.5 μM CHIR): No significant difference
- viability (Live/Dead) (hMSCs [7]): does not negatively alter
- release kinetics profile ([8]; from polymeric scaffolds (PLGA nanofibers), in water): first-order
- release ([8]; within 72 hours, from polymeric scaffolds): ~70%
